Assay results as given in PubChem BioAssay AID248 (DTP/NCI, 2004).
Several values for one entry are separate records, joined by “and”; a condition that tells them apart may be missing. Equal values may be shown once. Toxic doses and inconclusive results are not listed. Rule as the data show it: active = T/C of 150% or more; inactive = T/C below 125%.

Tested on: L1210 leukemia ip in BDF1 mice, survival T/C
Assay: NCI In Vivo Anticancer Drug Screen. Data for tumor model L1210 Leukemia (intraperitoneal) in B6D2F1 (BDF1) mice
Settings: endpoint: mean survival time, higher = longer survival
Outline: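 Ratio derived from survival: compound-dosed mice over vehicle-dosed mice, all bearing a transplantable tumor.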

[1] = dose: 50.0 mg/kg/injection, schedule: Q01DX001 (ip), vehicle: saline
[2] = dose: 100.0 mg/kg/injection, schedule: Q01DX001 (ip), vehicle: saline
[3] = dose: 6.25 mg/kg/injection, schedule: Q01DX009 (ip), vehicle: saline with Tween-80
[4] = dose: 12.5 mg/kg/injection, schedule: Q01DX009 (ip), vehicle: saline with Tween-80
[5] = dose: 25.0 mg/kg/injection, schedule: Q01DX009 (ip), vehicle: saline with Tween-80
[6] = dose: 100.0 mg/kg/injection, schedule: Q04DX003 (ip), vehicle: saline with Tween-80
[7] = dose: 100.0 mg/kg/injection, schedule: Q01DX009 (ip), vehicle: Klucel (hydroxypropylcellulose) (HPC)
[8] = dose: 100.0 mg/kg/injection, schedule: Q04DX003 (ip), vehicle: Klucel (hydroxypropylcellulose) (HPC)
[9] = dose: 200.0 mg/kg/injection, schedule: Q01DX009 (ip), vehicle: Klucel (hydroxypropylcellulose) (HPC)
[10] = dose: 200.0 mg/kg/injection, schedule: Q04DX003 (ip), vehicle: Klucel (hydroxypropylcellulose) (HPC)
[11] = dose: 400.0 mg/kg/injection, schedule: Q04DX003 (ip), vehicle: Klucel (hydroxypropylcellulose) (HPC)
[12] = dose: 100.0 mg/kg/injection, schedule: Q01DX009 (ip), vehicle: saline with Tween-80
[13] = dose: 200.0 mg/kg/injection, schedule: Q01DX009 (ip), vehicle: saline with Tween-80
[14] = dose: 200.0 mg/kg/injection, schedule: Q04DX003 (ip), vehicle: saline with Tween-80
[15] = dose: 400.0 mg/kg/injection, schedule: Q01DX009 (ip), vehicle: saline with Tween-80
[16] = dose: 400.0 mg/kg/injection, schedule: Q04DX003 (ip), vehicle: saline with Tween-80
[17] = dose: 100.0 mg/kg/injection, schedule: Q01DX001 (ip), vehicle: carboxymethylcellulose (CMC)
[18] = dose: 200.0 mg/kg/injection, schedule: Q01DX001 (ip), vehicle: carboxymethylcellulose (CMC)
[19] = dose: 400.0 mg/kg/injection, schedule: Q01DX001 (ip), vehicle: carboxymethylcellulose (CMC)

Measured: T/C

CCOC1=C(NC(C)=O)C(=O)c2ccccc2C1=O
inactive: dose: 75.0 mg/kg/injection, schedule: Q01DX001 (ip), vehicle: other 100 % of control

O=[N+]([O-])c1cnccc1/C=C\c1ccccc1
inactive: dose: 100.0 mg/kg/injection, schedule: Q01DX001 (ip), vehicle: Klucel (hydroxypropylcellulose) (HPC) 86 % of control | dose: 200.0 mg/kg/injection, schedule: Q01DX001 (ip), vehicle: Klucel (hydroxypropylcellulose) (HPC) 105 % of control | dose: 400.0 mg/kg/injection, schedule: Q01DX001 (ip), vehicle: Klucel (hydroxypropylcellulose) (HPC) 94 % of control

CC(C)(C)C1CCCC(=O)C1 (stereo not given)
inactive: [1] 101 % of control | [2] 89 % of control

CC(=O)Nc1cccc2c1C(=O)c1c(c(O)c3ccccc3c1O)C2=O
inactive: dose: 0.12 mg/kg/injection, schedule: Q01DX009 (ip), vehicle: Klucel (hydroxypropylcellulose) (HPC) 101 % of control | dose: 0.25 mg/kg/injection, schedule: Q01DX009 (ip), vehicle: Klucel (hydroxypropylcellulose) (HPC) 100 % of control | dose: 0.25 mg/kg/injection, schedule: Q04DX003 (ip), vehicle: Klucel (hydroxypropylcellulose) (HPC) 97 % of control | dose: 0.5 mg/kg/injection, schedule: Q01DX009 (ip), vehicle: Klucel (hydroxypropylcellulose) (HPC) 102 % of control | dose: 0.5 mg/kg/injection, schedule: Q04DX003 (ip), vehicle: Klucel (hydroxypropylcellulose) (HPC) 97 % of control | dose: 1.0 mg/kg/injection, schedule: Q01DX009 (ip), vehicle: Klucel (hydroxypropylcellulose) (HPC) 97 % of control | dose: 1.0 mg/kg/injection, schedule: Q04DX003 (ip), vehicle: Klucel (hydroxypropylcellulose) (HPC) 97 % of control | dose: 2.0 mg/kg/injection, schedule: Q01DX009 (ip), vehicle: Klucel (hydroxypropylcellulose) (HPC) 98 % of control | dose: 2.0 mg/kg/injection, schedule: Q04DX003 (ip), vehicle: Klucel (hydroxypropylcellulose) (HPC) 101 % of control | dose: 2.0 mg/kg/injection, schedule: Q04DX003 (ip), vehicle: water 95 % of control | dose: 3.12 mg/kg/injection, schedule: Q01DX009 (ip), vehicle: saline with Tween-80 102 % of control | dose: 4.0 mg/kg/injection, schedule: Q01DX009 (ip), vehicle: Klucel (hydroxypropylcellulose) (HPC) 105 % of control | dose: 4.0 mg/kg/injection, schedule: Q04DX003 (ip), vehicle: water 100 % of control | [3] 100 % of control | dose: 8.0 mg/kg/injection, schedule: Q04DX003 (ip), vehicle: water 102 % of control | [4] 97 % of control | dose: 12.5 mg/kg/injection, schedule: Q04DX003 (ip), vehicle: saline with Tween-80 100 % of control | dose: 16.0 mg/kg/injection, schedule: Q04DX003 (ip), vehicle: water 96 % of control and 103 % of control | [5] 102 % of control | dose: 25.0 mg/kg/injection, schedule: Q04DX003 (ip), vehicle: saline with Tween-80 96 % of control | dose: 32.0 mg/kg/injection, schedule: Q04DX003 (ip), vehicle: water 96 % of control | dose: 50.0 mg/kg/injection, schedule: Q01DX009 (ip), vehicle: saline with Tween-80 96 % of control | dose: 50.0 mg/kg/injection, schedule: Q04DX003 (ip), vehicle: saline with Tween-80 103 % of control | dose: 64.0 mg/kg/injection, schedule: Q04DX003 (ip), vehicle: water 97 % of control | [6] 96 % of control

Cc1c(CBr)c(=O)[nH]c2ccccc12
inactive: [2] 100 % of control | dose: 200.0 mg/kg/injection, schedule: Q01DX001 (ip), vehicle: saline 98 % of control

Cc1ccc(Cl)cc1NC(=O)Nc1ccccc1Cl
inactive: [7] 92 % of control | [8] 101 % of control | [9] 91 % of control | [10] 95 % of control | [11] 93 % of control

CCC(=O)C(CC)c1cccc(OC)c1 (stereo not given)
inactive: [12] 100 % of control | [6] 100 % of control | [13] 94 % of control | [14] 97 % of control | [15] 114 % of control | [16] 97 % of control

CCCCCCCCCCCCC[n+]1ccc(C#N)cc1
inactive: dose: 7.5 mg/kg/injection, schedule: Q04DX003 (ip), vehicle: saline 101 % of control | dose: 15.0 mg/kg/injection, schedule: Q04DX003 (ip), vehicle: saline 98 % of control | dose: 30.0 mg/kg/injection, schedule: Q04DX003 (ip), vehicle: saline 101 % of control

NC(=O)NC(=O)C1C2C=CC(C2)C1C(=O)NC(N)=O (stereo not given)
inactive: [6] 100 % of control | [14] 100 % of control | [16] 91 % of control

C=C(C)C1(Cc2ccccc2)C(=O)NC(=S)NC1=O
inactive: dose: 9.38 mg/kg/injection, schedule: Q01DX001 (ip), vehicle: saline 91 % of control | dose: 10.0 mg/kg/injection, schedule: Q01DX001 (ip), vehicle: saline 102 % of control

CCOC(=O)c1oc2cc(O)cc(C)c2c1C
inactive: dose: 50.0 mg/kg/injection, schedule: Q01DX001 (ip), vehicle: carboxymethylcellulose (CMC) 97 % of control | [17] 100 % of control | [18] 94 % of control | [19] 94 % of control

O=C(O)c1ccccc1C(=O)c1ccc(CBr)cc1
inactive: [3] 92 % of control | [4] 104 % of control | [5] 97 % of control

COc1cccc(N=CN(C)C)c1
inactive: [1] 90 % of control | [2] 104 % of control

CCOC(=O)CC1C(=O)CCCC1=O
inactive: dose: 100.0 mg/kg/injection, schedule: Q01DX001 (ip), vehicle: saline with Tween-80 98 % of control | dose: 200.0 mg/kg/injection, schedule: Q01DX001 (ip), vehicle: saline with Tween-80 104 % of control | dose: 400.0 mg/kg/injection, schedule: Q01DX001 (ip), vehicle: saline with Tween-80 95 % of control

CCOC(=O)/C=C\COC(=O)CC#N
inactive: [12] 102 % of control | [13] 107 % of control | [15] 98 % of control

COC1CC(OC2C(C)C(=O)OC(C)C(C)C(OC(C)=O)C(C)C(=O)C3(CO3)CC(C)C(OC3OC(C)CC(N(C)C)C3OC(C)=O)C2C)OC(C)C1OC(C)=O (stereo not given)
inactive: [17] 108 % of control | [18] 113 % of control | [19] 108 % of control

O=NN(Cc1ccc(Cl)cc1)C(=O)NCc1ccc(Cl)cc1
inactive: dose: 400.0 mg/kg/injection, schedule: Q01DX Z (ip), vehicle: carboxymethylcellulose (CMC) 104 % of control

c1ccc2c(C3OCC4(CCCCC4)CO3)cccc2c1
inactive: [7] 97 % of control | [8] 101 % of control | [9] 97 % of control | [10] 105 % of control | dose: 400.0 mg/kg/injection, schedule: Q01DX009 (ip), vehicle: Klucel (hydroxypropylcellulose) (HPC) 92 % of control | [11] 111 % of control

NC(CSS(=O)(=O)O)=NCc1ccoc1
inactive: dose: 12.5 mg/kg/injection, schedule: Q04DX002 (ip), vehicle: saline with Tween-80 98 % of control | dose: 25.0 mg/kg/injection, schedule: Q04DX002 (ip), vehicle: saline with Tween-80 98 % of control | dose: 50.0 mg/kg/injection, schedule: Q04DX002 (ip), vehicle: saline with Tween-80 95 % of control and 98 % of control
